{
  "source": "patent US9303076B2",
  "about": "“Cell-penetrating peptides and uses thereof” (Hoffmann-La Roche Inc., priority 2010, dated 2016)",
  "key": {"[1]": {"test_system": "MCF-7 human breast cancer cells", "test": "cell viability/apoptosis after 24 h exposure to pro-apoptotic peptides and CPP fusions", "type": "cell-based", "settings": "MCF-7 cells; for cell viability / cytotoxicity due to induction of apoptosis: 20 μM; for cell viability / induction of apoptosis: various concentrations", "experimental": "(§1) MCF-7 human breast cancer cells were incubated for 24 h in the presence of various concentrations of NRTN (squares), Nur (circles), and NurNRTN (triangles) peptides. The respective amino acid sequences are given in the bottom panel. The experimental approach for assessing cell viability (and thus induction of apoptosis) was the same as in FIG. 3.\nas §1, with “4E-BP1 (circles), TAT4E-BP1” for “NRTN”, “(squares),” for “(squares), Nur (circles),”, “NRTN4E-BP1” for “NurNRTN”, “peptides (top panel). […]” for “peptides.”\nLuminescence was analyzed in an InfiniteF200 luminescence reader.\nThen, the cells were treated with a luminogenic peptide substrate in order to measure dead-cell protease activity, which is released from cells that have lost membrane integrity. […] The luminescence of this assay therefore represents dead cells. The 96 well plates were then analyzed in an InfiniteF200 luminescence reader.\nDespite its proven ability to convert BCL-2 into a pro-apoptotic molecule, addition of the latter peptide (i.e. “Nor/Nur”; SEQ ID NO: 72) to cancer cells, even in high concentrations, is not sufficient to induce apoptosis, as the cellular target protein is located in the cytoplasm, but the peptide per se cannot effectively penetrate through the cell membrane to reach the target. In brief, MCF-7 breast cancer cells were incubated in the presence of this peptide for 24 h.\n(§2) Subsequently, it was evaluated whether the NurNRTN fusion peptide is capable of penetrating cellular membranes and thereby induces pro-apoptotic activity within cells. MCF-7 human breast cancer cells were used as a model. The experimental approach was as described above (cf. Example 1). […] This effect was dose dependent: cytotoxicity increased with increasing concentrations of peptide.\nas §2, with “NRTN4E-BP1” for “NurNRTN”"}, "[2]": {"test_system": "human Aha1 mRNA", "test": "siRNA transfection screening (siAha1 vs siGL3 control, bDNA assay of Aha1/GAPDH mRNA)", "type": "cell-based", "experimental": "For the quantification of cellular mRNA levels bDNA (branched DNA) assays were performed which enable the detection of individual mRNA levels. To this end, a defined number of the cells to be analyzed was seeded into 96-well plates and allowed to attach over night. On the next day, the cells were transfected with siRNA.\nAfter further 24 hours, the mRNA species were quantified using the QuantiGene Plex 2.0 assay kit according to the manufacturers instructions (Affymetrix Inc., Santa Clara, Calif., USA). In brief, cell lysates were transferred to a capture plate in the presence of a gene-specific probe set and incubated at 53° C. over night. After washing, the wells were sequentially incubated at 53° C. with an amplifier agent and an alkaline phosphatase (AP)-linked label probe with a washing step in between. Subsequently, the luminescent AP substrate dioxitane was added and incubated for 30 min at 53° C. Luminescence was assayed using an InfiniteF200 luminescence reader (Tecan Austria GmbH, Groding, Austria).\nIn order to analyze the potential CPPs for their ability to transfect siRNA into mammalian cells an increasing peptide concentration (from 1 μM to 20 μM) was employed along with a constant siRNA concentration (100 nM). This range of peptide concentrations was used as it had been shown that positively charged peptides such as TAT are internalized into cells in ranges up to 10 μM and remain in intracellular membrane compartments without significant egress into the cytosol (Duchardt, F. et al. (2007) Traffic 8, 848-866). […] A concentration of 10 nM siRNA is in the saturation range as determined in control experiments using the DharmaFECT transfection reagent (Dharmacon, Inc., Lafayette, Colo., USA; data not shown).\nThe siRNA oligonucleotides employed were directed against human Aha1 mRNA (Panaretou, B. et al. (2002) Mol. Cell 10, 1307-1318) or against luciferase mRNA as a control.\nComplexes of siRNA and the respective peptides were formed in OptiMEM medium and incubated for 15 minutes at room temperature. The cells were incubated in the presence of the complexes for three hours in OptiMEM. After washing, the cells were incubated for further 21 or 45 hours in normal growth medium. Thereafter, the levels of Aha1 mRNA and a reference mRNA (i.e. GAPDH mRNA) were measured by means of a bDNA assay. These assays were performed with cells that were transfected with siAHA1 and with a control siRNA (siGL3, luciferase), respectively.\nAs a measure for specific RNAi, the reduction of Aha1 mRNA levels relative to GAPDH mRNA levels was compared in siAHA1-transfected cells and siGL3-transfected cells. Specific siRNA mediated transfection causes a reduction in Aha1/GAPDH mRNA values in siAhA1-compared to siGL3-transfected cells. FIG. 3 depicts the screening readout of these assays: the Aha1/GAPDH mRNA values of non-transfected control cells were set to 100% (for each assay), and the Aha1/GAPDH mRNA values of siAha1- or siGL3-transfected cells were expressed relative to that. For this normalized data set, the differences between the respective Aha1/GAPDH mRNA levels of siAha1- and siGL3-transfected cells were determined. Specific peptides caused a significant reduction in siAha1 transfection without reducing siGL3 transfections, which results in positive difference values. The more pronounced these values are, the more specific RNAi is observed (cf. FIG. 3)."}, "[3]": {"test_system": "MCF7 cells", "test": "FACS analysis of internalization of FITC-labeled peptides", "type": "cell-based, human", "settings": "FITC-labeled peptide 1, 5, 10 μM; 3 hours at 37° C.; proteinase K treated", "experimental": "For FACS analysis, MCF7 cells (ATCC number HTB-22) were detached by 15 min incubation in accutase (an enzyme solution having proteolytic and collagenolytic activities; commercially available from various suppliers). After washing in FACS buffer (PBS containing 5% FCS), the cells were seeded in a 96 well, rounded bottom multi-well plate (Cat. No. 3799, Corning Inc., Corning, N.Y. USA) in a final density of 3×10^5 cells/ml and used immediately. The cells were incubated in the respective presence of 1 μM, 5 μM and 10 μM FITC-labeled peptides in OptiMEM medium for 3 hours at 37° C. Afterwards, the cells were washed in FACS buffer and incubated in proteinase K (0.02 mg/ml) containing buffer for 30 minutes at 37° C. The cells were washed twice and analyzed with the FACSCanto II (BD Biosciences; San Jose, Calif., USA) using the FITC channel.\nFor determining the internalization behavior of the CPPs identified in the screening procedures FITC-labeled derivates of said peptides (at 1 μM, 5 μM, and 10 μM, respectively) were analyzed by means of FACS. The following peptides were used: NRTN as a transfecting peptide, WNT16 as a non-transfecting peptide, FALL as a toxic peptide and TAT as a reference (positive control) (cf. FIG. 12). MCF7 cells were incubated in the presence of the fluorescent peptide derivatives for 3 hours at 37° C. in OptiMEM. Subsequently, the cells were treated with proteinase K for 30 minutes at 37° C. to remove surface bound peptides, and thus to ensure the monitoring only of internalized peptides. The cells were then washed in PBS and analyzed by FACS."}, "[4]": {"test_system": "MCF7 cells", "test": "growth inhibition/toxicity (CellTiter-Glo viability, GAPDH mRNA levels)", "settings": "MCF7 cells; peptide 1 μM to 20 μM", "procedure": "MCF7 cells were seeded at a density of 15.000 cells per well in 96 well plates. The cells were incubated for 24 hours at 37° C., 5% CO2 and 85% humidity in RPMI 1640 medium supplemented with 10% FCS (fetal calf serum) and L-glutamine. For functional assays, the cells were washed in OptiMEM medium and RPMI 1640 was replaced with OptiMEM (all reagents were purchased from Invitrogen Corporation, Carlsbad, Calif., USA). Complexes of siRNAs and peptides were formed by incubation of 100 nM siRNA with the indicated peptide concentrations in OptiMEM for 30 minutes at room temperature. The complexes were added to the cells and incubated for 3 hours. Subsequently, OptiMEM was replaced with normal RPMI 1640 growth medium. The cells were incubated for further 21 hours for generating bDNA lysates, and for further 45 hours for performing CellTiter-Glo or CytoTox-Glo assays (cf. below).\nIn order to measure the number of living cells the CellTiter-Glo Luminescent Cell Viability Assay (Promega Corporation, Madison, Wis., USA) was used according to the protocol of the manufacturer. The cells were incubated for 48 hours in the presence of peptides and siRNAs. Subsequently, the cells are lysed, and a luminescent signal proportional to the amount of ATP present is generated which, in turn, is proportional to the number of living cells present. Luminescence was analyzed in an InfiniteF200 luminescence reader.\nBased on this observation, GAPDH mRNA levels were used as a general readout for toxicity: an average measurement of 100% GAPDH mRNA relative to the medium control was considered as non-toxic, values between 99% and 70% as moderate toxic, and values of less than 70% as toxic (cf. FIG. 3).\nSimilarly, peptides resulting in GAPDH mRNA values >70% were classified as “nontoxic”, whereas peptides that caused a reduction of GAPDH mRNA to lesser values were termed “toxic”."}, "[5]": {"test_system": "siRNA duplex", "test": "gel-shift assay of peptide/siRNA complex formation", "type": "binding", "settings": "ethidium bromide staining", "experimental": "Gel-shift assays were performed by mixing […] siRNA duplex with the respective peptides in a given molar ratio in water. The complexes were formed for 1 hour at 37° C. and analyzed on a 2.5% agarose gel with ethidium bromide (run: 40 minutes at 125 V). For proteinase K treatment, 1 μl proteinase K was added to a standard reaction as indicated above.\nMechanisms that may explain transfection functionalities of charged peptides such as TAT or protamine include the formation of complexes between positively charged peptides and negatively charged nucleic acids. Such complexes enable peptide-mediated membrane-interacting and/or endosome escape functionalities to transfer the complexed nucleic acids into the cytosol of cells (Law, M. et al. (2008) Biotechnol. Prog. 24, 957-963) In order to address whether the above mechanism may apply to the NTRN-derived peptide as well gel-shift assays were performed (cf. FIG. 8). To this end, siRNA was co-incubated with increasing concentrations of peptide, followed by analyses of their migration pattern via gel electrophoresis."}},
  "data": [
    {"molecule": "CC[C@H](C)[C@H](NC(=O)[C@H](CCCNC(=N)N)NC(=O)[C@@H](NC(=O)CNC(=O)[C@H](CCCNC(=N)N)NC(=O)[C@H](CCCNC(=N)N)NC(=O)[C@H](CCCNC(=N)N)NC(=O)[C@H](CCC(N)=O)NC(=O)[C@H](CCCNC(=N)N)NC(=O)[C@H](CCCNC(=N)N)NC(=O)[C@H](CCCCN)NC(=O)[C@H](CCCCN)NC(=O)[C@H](CCCNC(=N)N)NC(=O)CNC(=O)[C@H](Cc1ccc(O)cc1)NC(=O)CCOCCOCCOCCNC(=O)[C@@H](N)CS)[C@@H](C)O)C(=O)N[C@H](C(=O)N[C@@H](Cc1ccc(O)cc1)C(=O)N[C@@H](CC(=O)O)C(=O)N[C@@H](CCCNC(=N)N)C(=O)N[C@@H](CCCCN)C(=O)N[C@@H](Cc1ccccc1)C(=O)N[C@@H](CC(C)C)C(=O)N[C@@H](CCSC)C(=O)N[C@@H](CCC(=O)O)C(=O)N[C@@H](CS)C(=O)N[C@@H](CCCNC(=N)N)C(=O)N[C@@H](CC(N)=O)C(=O)N[C@@H](CO)C(=O)N1CCC[C@H]1C(=O)N[C@H](C(=O)N[C@H](C(=O)O)[C@@H](C)O)C(C)C)[C@@H](C)CC", "note": "[TAT4E-BP1, reference compound]", "values": [
      {"measurement": "cell viability / cytotoxicity due to induction of apoptosis", "setting": "[1]", "value": "clear evidence for reduction in cell viability and cytotoxicity"}
    ]},
    {"molecule": "CC[C@H](C)[C@H](NC(=O)[C@H](CCCNC(=N)N)NC(=O)[C@@H](NC(=O)CNC(=O)[C@H](CCCNC(=N)N)NC(=O)[C@H](CCCNC(=N)N)NC(=O)[C@H](CCCNC(=N)N)NC(=O)[C@H](CCC(N)=O)NC(=O)[C@H](CCCNC(=N)N)NC(=O)[C@H](CCCNC(=N)N)NC(=O)[C@H](CCCCN)NC(=O)[C@H](CCCCN)NC(=O)[C@H](CCCNC(=N)N)NC(=O)CNC(=O)[C@H](Cc1ccc(O)cc1)NC(=O)CCOCCOCCOCCNC(=O)[C@@H](N)CS)[C@@H](C)O)C(=O)N[C@H](C(=O)NCC(=O)N[C@@H](CC(=O)O)C(=O)NCC(=O)N[C@@H](CCCCN)C(=O)N[C@@H](Cc1ccccc1)C(=O)NCC(=O)N[C@@H](CCSC)C(=O)N[C@@H](CCC(=O)O)C(=O)N[C@@H](CS)C(=O)N[C@@H](CCCNC(=N)N)C(=O)N[C@@H](CC(N)=O)C(=O)N[C@@H](CO)C(=O)N1CCC[C@H]1C(=O)N[C@H](C(=O)N[C@H](C(=O)O)[C@@H](C)O)C(C)C)[C@@H](C)CC", "note": "[TATinact4E-BP1, reference compound]", "values": [
      {"measurement": "cell viability / cytotoxicity due to induction of apoptosis", "setting": "[1]", "value": "completely inactive"}
    ]},
    {"molecule": "FALLGDFFRKSKEKIGKEFKRIVQRIKDFLRNLVPRTES (FALL39 Var.1 peptide sequence; listed as Homo sapiens)", "values": [
      {"measurement": "specific reduction of Aha1 mRNA at lower concentrations", "setting": "[2]; 5 μM peptide", "value": "clear and specific reduction of Aha1 mRNA"},
      {"measurement": "specific Aha1 mRNA reduction (relative to GAPDH mRNA) where toxicity is pronounced", "setting": "[2]; 10 μM or higher", "value": "only inconclusive evidence for a specific Aha1 mRNA reduction"},
      {"measurement": "transfection efficacy compared with TAT / control peptides", "setting": "[2]; NRTN: at lower non-toxic concentrations", "value": "inferior transfection efficacy than TAT"},
      {"measurement": "internalization into cells (FACS, FITC channel)", "setting": "[3]", "value": "strong accumulation"},
      {"measurement": "cell viability / growth inhibition / toxicity (CellTiter-Glo, GAPDH mRNA levels)", "setting": "[4]", "value": "significant toxicity"}
    ]},
    {"molecule": "FSRSLHSLLVDL (C-terminal Nor1 peptide sequence; listed as Homo sapiens) [Nor/Nur, reference compound]", "values": [
      {"measurement": "cell viability / induction of apoptosis", "setting": "[1]", "value": "No reduction in cell viability or induction of apoptosis was observed"}
    ]},
    {"molecule": "GAAEAAARVYDLGLRRLRQRRRLRRERVRAGTRIIGDGKFGMECRNSPVT (inactive NRTN4E-BP1 peptide sequence) [NRTNinact4E-BP1]", "values": [
      {"measurement": "cell viability / induction of apoptosis", "setting": "[1]", "value": "inactive"}
    ]},
    {"molecule": "GAAEAAARVYDLGLRRLRQRRRLRRERVRAGTRIIYDRKFLMECRNSPVT [NRTN4E-BP1]", "values": [
      {"measurement": "potency compared to TAT-fused counterpart", "setting": "[1]", "value": "significantly higher potency"},
      {"measurement": "cell viability / induction of apoptosis", "setting": "[1]", "value": "remarked cytotoxicity"}
    ]},
    {"molecule": "GRKKRRQRRRPPQ (Human immunodeficiency virus 1; TAT peptide sequence) [reference compound]", "values": [
      {"measurement": "complex formation with siRNA", "setting": "[5]", "value": "forms complexes with the siRNA molecules"},
      {"measurement": "difference of Aha1/GAPDH for luciferase siRNA and Aha1/GAPDH for Aha1 siRNA (Transfection)", "setting": "[2]; 20 μM, threshold value of FIG. 3", "value": 18, "unit": "%"}
    ]},
    {"molecule": "GTRIIYDRKFLMECRNSPVT [4E-BP1, reference compound]", "values": [
      {"measurement": "cell viability / induction of apoptosis", "setting": "[1]", "value": "No reduction in cell viability or induction of apoptosis was observed"}
    ]},
    {"molecule": "PROK2: candidate peptide displaying the highest similarity with TAT (LTRKNNFGNGRQERRKRKRSKRKKEVPFFG; PROK2 peptide sequence; listed as Homo sapiens)", "values": [
      {"measurement": "siRNA transfection activity (specific Aha1 mRNA reduction relative to GAPDH mRNA)", "setting": "[2]; MCF7 cells, 100 nM siRNA, peptide 1 μM to 20 μM", "value": "did not show detectable transfection activity"}
    ]}
  ]
}
